From patent US11149035B2, “Chemical compounds as H—PGDS inhibitors” (GlaxoSmithKline Intellectual Property Development Limited, priority 2017, dated 2021)

Each molecule was assayed against T1, haematopoietic prostaglandin D synthase (H-PGDS) (Homo sapiens, UniProt O60760) (assay: H-PGDS RapidFire high throughput mass spectrometry assay (conversion of PGH2 to PGD2)). Conditions: 10 nM H-PGDS, PGH2 formed in situ by COX-2 from arachidonic acid; four parameter curve fit; read-out: Potency Range (mean pIC50) (converted).
T1 construct: Full length human H-PGDS cDNA (Invitrogen Ultimate ORF IOH13026) was amplified by PCR; 6-His (N); TEV protease cleavage site (N); made in house; host or cells: E. coli BL21 (DE3*)
T1 sequence (O60760 whole entry): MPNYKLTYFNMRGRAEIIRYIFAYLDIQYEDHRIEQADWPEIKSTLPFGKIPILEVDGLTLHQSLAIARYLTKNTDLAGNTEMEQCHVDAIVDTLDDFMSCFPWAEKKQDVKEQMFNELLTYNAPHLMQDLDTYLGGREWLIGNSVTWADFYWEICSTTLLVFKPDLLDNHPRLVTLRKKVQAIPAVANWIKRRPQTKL
Format: biochemical
Experimental: The H-PGDS RapidFire™ mass spectrometric assay monitors conversion of prostaglandin H2 (PGH2) to prostaglandin D2 (PGD2) by haematopoietic prostaglandin D synthase (H-PGDS). In the assay format described here, the substrate (PGH2) is formed in situ by the action of cyclooxygenase-2 on arachidonic acid. This first step is set up to be fast, and generates a burst of PGH2 at ˜10 μM. The PGH2 is then further converted to PGD2 by the H-PGDS enzyme. […] Plates are then read on the RapidFire™ high throughput solid phase extraction system (Agilent) which incorporates a solid phase extraction step coupled to a triple quadrupole mass spectrometer (AB SCIEX). Relative levels of PGD2 and PGF2α, which acts as a surrogate for substrate, are measured and a percent conversion calculated. Inhibitors are characterised as compounds which lower the conversion of PGH2 to PGD2.
Full length human H-PGDS cDNA (Invitrogen Ultimate ORF IOH13026) was amplified by PCR with the addition of a 5′ 6-His tag and TEV protease cleavage site. The PCR product was digested with NdeI and XhoI and ligated into pET22b+ (Merck Novagen®). Expression was carried out in E. coli strain BL21 (DE3*) using auto-induction Overnight Express™ Instant TB medium (Merck Novagen®) supplemented with 1% glycerol. The culture was first grown at 37° C. and the temperature was reduced to 25° C. when OD600 reached 2.0. Cells were harvested by centrifugation after a further 18 hours. 10 g of E. coli cell pellet was suspended to a total volume of 80 mL in lysis buffer (20 mM Tris-Cl pH 7.5, 300 mM NaCl, 20 mM imidazole, 5 mM β-mercaptoethanol, 10% glycerol). 1 mg/mL protease inhibitors (Protease Inhibitor Cocktail Set III, Merck Calbiochem®) and 1 mg/mL lysozyme were added to the cell suspension. The suspension was then sonicated for 5 min (UltraSonic Processor VCX 750, Cole-Parmer Instrument Co.) with a micro probe (50% amplitude, 10 sec on/off) and then centrifuged at 100,000 g for 90 minutes (at 4° C.). The supernatant was loaded onto a Ni-NTA HiTrap column (5 mL, GE Healthcare, pre-equilibrated in lysis buffer). The column was washed with 10 column volumes of lysis buffer and eluted with lysis buffer containing 500 mM imidazole. The pooled protein peak fractions were concentrated using a 10 kDa centrifugal filter at 3500 g and 4° C. (Amicon Ultra-15 centrifugal filter unit with Ultracel-10 membrane from Millipore). Further purification of the concentrated protein was carried out using gel filtration chromatography on a HiLoad 26/600 Superdex 75 preparative grade column (GE Healthcare Life Sciences) using 50 mM Tris pH 7.5, 50 mM NaCl, 1 mM dithiothreitol, 1 mM MgCl2. Fractions containing the protein were pooled, concentrated as described above, and stored at −80° C.
The full length human COX-2 gene (accession number L15326) was amplified by PCR to generate an EcoRI—HindIII fragment containing an in-frame FLAG tag. This was subcloned into pFastBac 1 (Invitrogen). The COX-2 FLAG plasmid was recombined into the baculovirus genome according to the BAC-to-BAC protocol described by Invitrogen. Transfection into Spodoptera frugiperda (Sf9) insect cells was performed using Cellfectin (Invitrogen), according to the manufacturer's protocol. Super Sf9 cells were cultured in EX420 media (SAFC Biosciences) to a density of approximately 1.5×10^6 cells/mL within a wave bioreactor. Recombinant virus was added at a Multiplicity of Infection (MOI) of 5 and the culture was allowed to continue for 3 days. Cells were harvested using a continuous feed centrifuge run at 2500 g at a rate of approximately 2 L/min with cooling. The resultant cell slurry was re-centrifuged in pots (2500 g, 20 min, 4° C.) and the cell paste was stored at −80° C. 342 g of cell paste was re-suspended to a final volume of 1600 mL in a buffer of 20 mM Tris-Cl pH 7.4, 150 mM NaCl, 0.1 mM EDTA, 1.3% w/v n-octyl-[…] containing 20 Complete EDTA-free Protease Inhibitor Cocktail tablets (Roche Applied Science). […]
`CC(C)(O)[C@H]1CC[C@H](NC(=O)c2cnc3cc(N4CCC4)ncc3c2)CC1` [Example 4, 7-(Azetidin-1-yl)-N-(trans-4-(2-hydroxypropan-2-yl)cyclohexyl)-1,6-naphthyridine-3-carboxamide] was tested, and the IC50 was less than 10 nM.
`COc1nc2ncc(C(=O)N[C@H]3CC[C@H](C(C)(C)O)CC3)cc2cc1Cl` [Example 62, 6-Chloro-N-(trans-4-(2-hydroxypropan-2-yl)cyclohexyl)-7-methoxy-1,8-naphthyridine-3-carboxamide] gave an IC50 of less than 10 nM.
`CC(C)(O)[C@H]1CC[C@H](NC(=O)c2cnc3nc(C4CCC4)ccc3c2)CC1` [Example 72, 7-Cyclobutyl-N-(trans-4-(2-hydroxypropan-2-yl)cyclohexyl)-1,8-naphthyridine-3-carboxamide] was tested, and the IC50 was 10 to 79.4 nM.
With `CC1CCN1c1ccc2cc(C(=O)N[C@H]3CC[C@H](C(C)(C)O)CC3)cnc2n1` (mixture of isomers) [Example 7, N-(trans-4-(2-Hydroxypropan-2-yl)cyclohexyl)-7-(2-methylazetidin-1-yl)-1,8-naphthyridine-3-carboxamide] the IC50 was 10 to 79.4 nM.
`C[C@]1(O)C[C@@H](NC(=O)c2cnc3nc(C4CC4)ccc3c2)C1` [Example 45, 7-Cyclopropyl-N-((1s,3s)-3-hydroxy-3-methylcyclobutyl)-1,8-naphthyridine-3-carboxamide] showed an IC50 of 100 to 1000 nM.
Work on `O=C(N[C@H]1CC[C@@](O)(C(F)F)CC1)c1cnc2nc(C3CC3)ccc2c1` [Example 52, 7-Cyclopropyl-N-((1r,4r)-4-(difluoromethyl)-4-hydroxycyclohexyl)-1,8-naphthyridine-3-carboxamide] yielded an IC50 of 100 to 1000 nM.
With `C[C@]1(O)CC[C@H](NC(=O)c2cnc3cc(C4CC4)ncc3c2)CC1` [Example 30, 7-Cyclopropyl-N-((1r,4r)-4-hydroxy-4-methylcyclohexyl)-1,6-naphthyridine-3-carboxamide] the IC50 was 100 to 1000 nM.
In the case of `C[C@]1(O)C[C@@H](NC(=O)c2cnc3nc(N4CCC4)ccc3c2)C1` [Example 18, 7-(Azetidin-1-yl)-N-((1s,3s)-3-hydroxy-3-methylcyclobutyl)-1,8-naphthyridine-3-carboxamide], the IC50 is reported as 100 to 1000 nM.
For `O=C(N[C@H]1CCNC1=O)c1cnc2cc(C3CC3)ncc2c1` [Example 29, (S)-7-Cyclopropyl-N-(2-oxopyrrolidin-3-yl)-1,6-naphthyridine-3-carboxamide], the IC50 was 10 to 79.4 nM.
In the case of `O=C(N[C@H]1CC[C@](O)(C(F)F)CC1)c1cnc2cc(C3CC3)ncc2c1` [Example 36, 7-Cyclopropyl-N-((1s,4s)-4-(difluoromethyl)-4-hydroxycyclohexyl)-1,6-naphthyridine-3-carboxamide], the IC50 is reported as 100 to 1000 nM.
Work on `CC(C)(O)C1CC2(CC(NC(=O)c3cnc4nc(C5CC5)ccc4c3)C2)C1` (racemic) [Example 49, 7-Cyclopropyl-N-(6-(2-hydroxypropan-2-yl)spiro[3.3]heptan-2-yl)-1,8-naphthyridine-3-carboxamide] yielded an IC50 of 10 to 79.4 nM.
For `O=C(N[C@H]1CCNC1=O)c1cnc2nc(C3CC3)ccc2c1` [Example 44, (S)-7-Cyclopropyl-N-(2-oxopyrrolidin-3-yl)-1,8-naphthyridine-3-carboxamide], the IC50 was 10 to 79.4 nM.
For `C[C@]1(O)C[C@@H](NC(=O)c2cnc3nc(C4CC4)c(Cl)cc3c2)C1` [Example 76, 6-Chloro-7-cyclopropyl-N-((1s,3s)-3-hydroxy-3-methylcyclobutyl)-1,8-naphthyridine-3-carboxamide], the IC50 was less than 10 nM.
`C[C@H]1CCN1c1nc2ncc(C(=O)N[C@H]3C[C@@](C)(O)C3)cc2cc1Cl` [Example 63, 6-chloro-N-((1s,3R)-3-hydroxy-3-methylcyclobutyl)-7-((S)-2-methylazetidin-1-yl)-1,8-naphthyridine-3-carboxamide] gave an IC50 of less than 10 nM.
With `O=C(N[C@H]1CCNC1=O)c1cnc2nc(C3CC3)c(Cl)cc2c1` [Example 71, (S)-6-Chloro-7-cyclopropyl-N-(2-oxopyrrolidin-3-yl)-1,8-naphthyridine-3-carboxamide] the IC50 was less than 10 nM.
`O=C(N[C@H]1CCNC1=O)c1cnc2cc(N3CCC3)ncc2c1` [Example 20, (S)-7-(Azetidin-1-yl)-N-(2-oxopyrrolidin-3-yl)-1,6-naphthyridine-3-carboxamide] was tested, and the IC50 was 10 to 79.4 nM.
